{"source": "patent US9296691B2", "about": "“Inhibitors of p75 receptor and their uses” (Horacio Uri Saragovi, priority 2010, dated 2016)", "key": {"[1]": {"biological_target": "T1, p75-Fc (Homo sapiens, UniProt P08138)", "T1 construct": "purchased R&D", "T1 sequence (P08138 29-250 limits assumed)": "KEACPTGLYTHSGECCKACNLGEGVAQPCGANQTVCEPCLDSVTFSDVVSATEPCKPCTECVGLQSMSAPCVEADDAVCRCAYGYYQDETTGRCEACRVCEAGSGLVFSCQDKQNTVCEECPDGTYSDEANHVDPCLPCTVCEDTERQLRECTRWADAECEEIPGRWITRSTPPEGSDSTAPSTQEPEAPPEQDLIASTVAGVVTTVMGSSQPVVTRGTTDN", "assay": "Competitive ELISA, p75-Fc binding to immobilized NGF", "description": "(§1) The effect of compounds I-B and LM-24 on the binding between NGF and p75 was tested in competitive ELISA assays, where the antagonists prevent soluble p75 from binding to immobilized NGF. The selectivity of antagonism was evaluated by lack of effect upon NGF-TrkA or lack of effect between NGF and anti-NGF monoclonal antibody (mAb) NGF30 interactions (FIG. 1A).\nThe compound LM-24 has been reported by others (Massa et al., 2006). Binding studies were carried out with all the compounds using I-B as reference.\n(§2) Competitive ELISAs were performed as described (Saragovi et al., 1998). The procedure immobilized 50 ng/well NGF, or pro-NGF (Alomone Labs, Israel) onto polystyrene 96-well microtest plates, with washing and blocking with binding buffer (BB; phosphate buffered saline containing 0.5% bovine serum albumin). The following primary reagents in BB were added: recombinant chimeric p75-Fc or recombinant chimeric TrkA-Fc (R&D), or anti-NGF mAb NGF30 (Saragovi et al., 1998); each at 50 nM. The competitors I-B and the other test compounds (or control LM-24) were added at the indicated concentrations, and the plates were incubated for 45 minutes. After washing 3× in BB, HRP-conjugated secondary reagents (Sigma) were added for 30 min (goat anti-human Fc for p75-Fc and for TrkA-Fc; and goat anti-rat Ab for NGF30 mAb), and then wells were washed 3× in BB and 1× in PBS. Peroxidase activity was determined colorimetrically using the substrate TMB One Solution (Promega). The reaction was stopped with 0.5 N H2SO4 and the plates were read at 450 nm (Benchmark Plus, Bio-Rad). Assays were repeated n>4 times, with replicates of 4 wells each assay. […] Wells with no NGF immobilized but with all other reagents added were treated as background (<15% of maximal signals) and standardized to 0% binding."}, "[2]": {"test_system": "anti-NGF mAb NGF30", "assay": "Competitive ELISA, anti-NGF mAb NGF30 binding to immobilized NGF (selectivity control)", "description": "as §1, §2"}, "[3]": {"test_system": "TNF-α", "assay": "Glaucoma model, retinal TNF-α by western blot", "type": "in vivo, rat", "conditions": "intravitreal injection at glaucoma day 14, measured 3 and 5 days later", "description": "(§3) After 14-days of glaucoma eyes were injected intravitreally with p75NTR antagonists, and the levels of TNF-α and α2M were measured three days later (e.g. day 17 of glaucoma) and five days later (e.g. day 19 of glaucoma) (FIG. 3A).\n(§4) Both retinas of each animal were detergent solubilized, and studied in independent gels standardized to loading control. The ratio of the glaucoma eye ±treatment versus the normal contralateral eye was calculated, and results were averaged ±sem, n=3 animals per group. In glaucoma, all drug treatments were done at day 14 of hypertension. In one group the retinas were harvested at day 17 of glaucoma (3 days after intraocular injection) and in the other group the retinas were harvested at day 19 of glaucoma (5 days after intraocular injection). Normal eyes treated with NGF-A were collected in the indicated days. After SDS-PAGE and western transfer, membranes were immunoblotted with rabbit polyclonal antibodies against TNF-α (Preprotech) or α2M (Santa Cruz) at a 1:3000 dilution. Goat anti-rabbit secondary antibodies conjugated to horseradish peroxidase (Sigma) were used at a 1:10,000 dilution. Loading was controlled with antibodies to β-actin (Sigma). For digital quantification, membranes were scanned and analyzed using ImageJ software."}, "[4]": {"test_system": "α2M", "assay": "Glaucoma model, retinal α2M by western blot", "type": "in vivo, rat", "conditions": "intravitreal injection at glaucoma day 14, measured 3 and 5 days later", "description": "as §3, §4"}, "[5]": {"conditions": "competitive ELISA, FIG. 1A, compound at 30 μM"}}}
{"smiles": "CC(C)NC(=O)N(C(=O)Cn1cnc2c1c(=O)n(C)c(=O)n2C)C(C)C", "note": "[I-B, 1,3-Diisopropyl-1-[2-(1,3-dimethyl-2,6-dioxo-1,2,3,6-tetrahydro-purin-7-yl)-acetyl]-urea]", "values": [{"measurement": "remaining activity at 30 µM", "setting": "[1]; 0.75 h, binding to immobilized NGF, no cpd = 100%, p75-Fc 50 nM, as described for FIG. 1A (compounds 30 μM), below 100% indicates inhibition", "value": 52, "unit": "%"}, {"measurement": "effect on NGF-p75NTR interaction", "setting": "[1]; [5]", "value": "antagonized NGF-p75NTR interactions selectively"}, {"measurement": "NGF30 binding AVERAGE", "setting": "[2]; binding to immobilized NGF, no cpd = 100%, mAb NGF30 50 nM, as described for FIG. 1A", "value": 88, "unit": "%"}, {"measurement": "effect on mAb NGF30 binding to NGF", "setting": "[2]; [5]", "value": "did not interfere"}, {"measurement": "TNF-α level in glaucomatous retina, fold-change versus normal retina", "setting": "[3]", "value": "time-dependent inhibition"}, {"measurement": "α2M level in glaucomatous retina, fold-change versus normal retina", "setting": "[4]", "value": "time-dependent inhibition"}]}
